Measured values published in patent US20240398811A1, “PRC2 INHIBITORS FOR USE IN TREATING BLOOD DISORDERS” (ORIC Pharmaceuticals, Inc., priority 2021, published 2024).
pIC50: −log10 of the molar value.

Each compound was assayed against purified human, His-tagged PRC2 complex (Homo sapiens (Human), UniProt O75530) (assay: Hot Spot HMT assay, inhibition of PRC2 enzymatic activity). Conditions: 10 nM PRC2 complex, 1 μM 3H-SAM, core histone H3, 10-point dose-response.
Format: biochemical
How it was run: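 Five-subunit PRC2 complex (EZH2, EED, SUZ12, AEBP2, RbAp48; 10 nM) preincubated 20 min at 30° C with compound (top 1.0 μM) and 0.05 mg/ml core histone H3 in Tris-HCl, 1% DMSO. Started with 1 μM [3H]SAM, 1 hr at 30° C; tritiated H3 measured by filter binding and scintillation.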

Chain of purified human, His-tagged PRC2 complex (O75530 whole entry): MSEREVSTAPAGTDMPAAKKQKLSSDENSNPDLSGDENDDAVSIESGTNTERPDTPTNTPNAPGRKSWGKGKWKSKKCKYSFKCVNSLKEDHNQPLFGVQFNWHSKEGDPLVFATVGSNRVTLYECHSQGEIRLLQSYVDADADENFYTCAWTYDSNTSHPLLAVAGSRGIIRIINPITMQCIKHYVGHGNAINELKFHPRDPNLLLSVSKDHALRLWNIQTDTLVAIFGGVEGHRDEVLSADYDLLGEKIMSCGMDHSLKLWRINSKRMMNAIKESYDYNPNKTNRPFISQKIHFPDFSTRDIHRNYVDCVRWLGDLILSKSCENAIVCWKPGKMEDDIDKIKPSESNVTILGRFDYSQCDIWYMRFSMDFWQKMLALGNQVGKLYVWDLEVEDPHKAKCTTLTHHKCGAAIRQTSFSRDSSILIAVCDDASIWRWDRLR
Chain of purified human, His-tagged PRC2 complex (Q15910 whole entry partner): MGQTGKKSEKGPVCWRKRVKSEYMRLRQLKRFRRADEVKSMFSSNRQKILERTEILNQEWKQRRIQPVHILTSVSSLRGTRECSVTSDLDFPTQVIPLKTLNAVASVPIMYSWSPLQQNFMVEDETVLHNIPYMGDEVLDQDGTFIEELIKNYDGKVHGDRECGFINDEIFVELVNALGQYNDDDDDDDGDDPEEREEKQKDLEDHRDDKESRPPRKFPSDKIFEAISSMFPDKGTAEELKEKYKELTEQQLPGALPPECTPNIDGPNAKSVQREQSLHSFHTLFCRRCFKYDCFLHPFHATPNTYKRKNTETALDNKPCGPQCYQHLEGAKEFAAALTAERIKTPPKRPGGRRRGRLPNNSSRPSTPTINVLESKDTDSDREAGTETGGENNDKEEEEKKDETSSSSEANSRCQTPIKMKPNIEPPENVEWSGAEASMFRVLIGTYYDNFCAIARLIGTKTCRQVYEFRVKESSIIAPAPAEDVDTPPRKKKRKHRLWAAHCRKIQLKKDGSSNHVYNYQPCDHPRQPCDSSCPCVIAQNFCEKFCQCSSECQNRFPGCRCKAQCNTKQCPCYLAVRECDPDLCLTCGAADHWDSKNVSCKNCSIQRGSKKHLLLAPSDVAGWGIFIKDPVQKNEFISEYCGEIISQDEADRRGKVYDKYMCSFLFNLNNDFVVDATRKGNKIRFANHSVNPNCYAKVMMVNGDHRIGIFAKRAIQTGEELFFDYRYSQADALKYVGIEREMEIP
Chain of purified human, His-tagged PRC2 complex (Q15022 whole entry partner): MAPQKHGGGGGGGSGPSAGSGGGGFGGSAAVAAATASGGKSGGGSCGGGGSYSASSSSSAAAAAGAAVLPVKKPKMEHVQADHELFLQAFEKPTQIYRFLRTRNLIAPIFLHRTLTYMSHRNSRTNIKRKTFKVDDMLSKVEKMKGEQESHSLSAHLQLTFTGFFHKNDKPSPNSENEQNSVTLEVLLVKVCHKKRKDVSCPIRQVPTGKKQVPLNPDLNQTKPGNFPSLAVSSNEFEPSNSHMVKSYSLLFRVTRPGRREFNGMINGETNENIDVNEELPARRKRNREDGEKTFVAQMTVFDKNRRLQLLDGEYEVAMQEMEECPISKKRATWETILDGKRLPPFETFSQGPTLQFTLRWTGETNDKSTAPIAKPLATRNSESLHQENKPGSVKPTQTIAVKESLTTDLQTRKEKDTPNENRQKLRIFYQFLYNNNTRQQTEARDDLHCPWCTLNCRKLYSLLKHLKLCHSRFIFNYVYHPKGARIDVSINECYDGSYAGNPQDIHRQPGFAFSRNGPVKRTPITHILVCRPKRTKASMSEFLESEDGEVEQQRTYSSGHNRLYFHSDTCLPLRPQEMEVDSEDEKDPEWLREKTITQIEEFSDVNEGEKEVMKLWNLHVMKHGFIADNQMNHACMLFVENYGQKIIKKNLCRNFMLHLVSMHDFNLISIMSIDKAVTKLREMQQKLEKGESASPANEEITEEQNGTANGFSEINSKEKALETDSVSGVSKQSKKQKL
Chain of purified human, His-tagged PRC2 complex (Q6ZN18 whole entry partner): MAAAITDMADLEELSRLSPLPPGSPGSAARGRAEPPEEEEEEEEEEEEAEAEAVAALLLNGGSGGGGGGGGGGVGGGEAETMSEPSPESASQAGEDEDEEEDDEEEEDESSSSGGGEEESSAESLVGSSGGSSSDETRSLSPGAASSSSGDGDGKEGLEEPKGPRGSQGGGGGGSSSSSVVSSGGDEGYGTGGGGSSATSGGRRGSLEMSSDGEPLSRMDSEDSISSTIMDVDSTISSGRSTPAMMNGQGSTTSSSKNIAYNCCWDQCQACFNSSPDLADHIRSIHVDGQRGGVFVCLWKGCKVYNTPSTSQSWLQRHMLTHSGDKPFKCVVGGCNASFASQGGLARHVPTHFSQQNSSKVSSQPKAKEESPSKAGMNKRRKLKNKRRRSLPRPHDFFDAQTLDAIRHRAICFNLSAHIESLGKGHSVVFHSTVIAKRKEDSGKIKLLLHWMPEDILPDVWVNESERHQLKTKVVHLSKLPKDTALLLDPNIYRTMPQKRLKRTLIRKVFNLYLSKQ
Chain of purified human, His-tagged PRC2 complex (Q09028 whole entry partner): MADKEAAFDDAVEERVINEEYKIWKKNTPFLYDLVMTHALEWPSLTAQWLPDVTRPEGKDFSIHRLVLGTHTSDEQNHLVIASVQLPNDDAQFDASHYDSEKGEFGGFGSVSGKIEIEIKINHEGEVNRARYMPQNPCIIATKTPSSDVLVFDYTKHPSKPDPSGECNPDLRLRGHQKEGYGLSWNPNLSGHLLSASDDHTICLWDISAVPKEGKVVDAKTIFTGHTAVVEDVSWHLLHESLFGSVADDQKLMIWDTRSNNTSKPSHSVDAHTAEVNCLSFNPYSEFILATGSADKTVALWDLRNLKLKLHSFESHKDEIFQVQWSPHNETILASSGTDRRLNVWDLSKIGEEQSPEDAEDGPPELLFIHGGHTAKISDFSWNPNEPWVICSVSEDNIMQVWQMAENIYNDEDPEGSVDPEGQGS

Row | pIC50 | SMILES
1 | > 7.00 | N#Cc1cn2c(NCc3c(F)ccc4c3CCO4)ncc(-c3ccc(C4CCCO4)cc3)c2n1 (stereo not drawn) [Example 162, 5-(((5-fluoro-2,3-dihydrobenzofuran-4-yl)methyl)amino)-8-(4-(tetrahydrofuran-2-yl)phenyl)imidazo[1,2-c]pyrimidine-2-carbonitrile]
2 | > 7.00 | CN(C)CCc1ccc(-c2cnc(NCc3c(F)ccc4c3CCO4)n3cc(C#N)nc23)cc1 [Example 163, 8-(4-(2-(dimethylamino)ethyl)phenyl)-5-(((5-fluoro-2,3-dihydrobenzofuran-4-yl)methyl)amino)imidazo[1,2-c]pyrimidine-2-carbonitrile]
3 | > 7.00 | [2H]C([2H])(Nc1ncc(-c2ccc(CN(C)C)cc2)c2nc(C#N)cn12)c1c(F)ccc2c1CCO2 [Example 165, 8-(4-((dimethylamino)methyl)phenyl)-5-(((5-fluoro-2,3-dihydrobenzofuran-4-yl)methyl-d2)amino)imidazo[1,2-c]pyrimidine-2-carbonitrile]
4 | > 7.00 | COC(=O)c1ccc(-c2cnc(NCc3c(F)ccc4c3CCO4)n3cc(C#N)nc23)cn1 [Example 166, methyl 5-(2-cyano-5-(((5-fluoro-2,3-dihydrobenzofuran-4-yl)methyl)amino)imidazo[1,2-c]pyrimidin-8-yl)picolinate]
5 | 6.30 to 7.00 | COC(=O)c1ccc(-c2cnc(NCc3c(F)ccc4c3CCO4)n3cc(C#N)nc23)cc1 [Example 167, methyl 4-(2-cyano-5-(((5-fluoro-2,3-dihydrobenzofuran-4-yl)methyl)amino)imidazo[1,2-c]pyrimidin-8-yl)benzoate]
6 | > 7.00 | CN1CCc2cc(-c3cnc(NCc4c(F)ccc5c4CCO5)n4cc(C#N)nc34)ccc2C1=O [Example 168, 5-(((5-fluoro-2,3-dihydrobenzofuran-4-yl)methyl)amino)-8-(2-methyl-1-oxo-1,2,3,4-tetrahydroisoquinolin-6-yl)imidazo[1,2-c]pyrimidine-2-carbonitrile]
7 | > 7.00 | COC(=O)c1cc(-c2cnc(NCc3c(F)ccc4c3CCO4)n3cc(C#N)nc23)n(C)n1 [Example 169, methyl 5-(2-cyano-5-(((5-fluoro-2,3-dihydrobenzofuran-4-yl)methyl)amino)imidazo[1,2-c]pyrimidin-8-yl)-1-methyl-1H-pyrazole-3-carboxylate]
8 | > 7.00 | CN(C)C(=O)c1cc(-c2cnc(NCc3c(F)ccc4c3CCO4)n3cc(C#N)nc23)n(C)n1 [Example 170, 5-(2-cyano-5-(((5-fluoro-2,3-dihydrobenzofuran-4-yl)methyl)amino)imidazo[1,2-c]pyrimidin-8-yl)-N,N,1-trimethyl-1H-pyrazole-3-carboxamide]
9 | > 7.00 | CN(C)C1(c2ccc(-c3cnc(NCc4c(F)ccc5c4CCO5)n4cc(C#N)nc34)cc2)CC1 [Example 171, 8-(4-(1-(dimethylamino)cyclopropyl)phenyl)-5-(((5-fluoro-2,3-dihydrobenzofuran-4-yl)methyl)amino)imidazo[1,2-c]pyrimidine-2-carbonitrile]
10 | > 7.00 | N#Cc1cn2c(NCc3c(F)ccc4c3CCO4)ncc(-c3ccc4c(c3)CCNC4=O)c2n1 [Example 172, 5-(((5-fluoro-2,3-dihydrobenzofuran-4-yl)methyl)amino)-8-(1-oxo-1,2,3,4-tetrahydroisoquinolin-6-yl)imidazo[1,2-c]pyrimidine-2-carbonitrile]
11 | > 7.00 | [2H]C([2H])(c1ccc(-c2cnc(NCc3c(F)ccc4c3CCO4)n3cc(C#N)nc23)c(C)c1)N(C)C [Example 173, 8-(4-((dimethylamino)methyl-d2)-2-methylphenyl)-5-(((5-fluoro-2,3-dihydrobenzofuran-4-yl)methyl)amino)imidazo[1,2-c]pyrimidine-2-carbonitrile]
12 | > 7.00 | N#Cc1cn2c(NCc3c(F)ccc4c3CCO4)ncc(-c3cccc(C(=O)O)c3)c2n1 [Example 174, 3-(2-cyano-5-(((5-fluoro-2,3-dihydrobenzofuran-4-yl)methyl)amino)imidazo[1,2-c]pyrimidin-8-yl)benzoic acid]
13 | 6.30 to 7.00 | Cc1ccc(-c2cnc(NCc3c(F)ccc4c3CCO4)n3cc(C#N)nc23)cc1 [Example 175, 5-(((5-fluoro-2,3-dihydrobenzofuran-4-yl)methyl)amino)-8-(p-tolyl)imidazo[1,2-c]pyrimidine-2-carbonitrile]
14 | > 7.00 | Cc1c(C#N)cccc1-c1cnc(NCc2c(F)ccc3c2CCO3)n2cc(C#N)nc12 [Example 176, 8-(3-cyano-2-methylphenyl)-5-(((5-fluoro-2,3-dihydrobenzofuran-4-yl)methyl)amino)imidazo[1,2-c]pyrimidine-2-carbonitrile]
15 | 6.30 to 7.00 | Cc1ccc(C#N)cc1-c1cnc(NCc2c(F)ccc3c2CCO3)n2cc(C#N)nc12 [Example 177, 8-(5-cyano-2-methylphenyl)-5-(((5-fluoro-2,3-dihydrobenzofuran-4-yl)methyl)amino)imidazo[1,2-c]pyrimidine-2-carbonitrile]
16 | > 7.00 | CC(O)Cn1cc(-c2cnc(NCc3c(F)ccc4c3CCO4)n3cc(C#N)nc23)cn1 (stereo not drawn) [Example 179, 5-(((5-fluoro-2,3-dihydrobenzofuran-4-yl)methyl)amino)-8-(1-(2-hydroxypropyl)-1H-pyrazol-4-yl)imidazo[1,2-c]pyrimidine-2-carbonitrile]
17 | > 7.00 | CN(C)C(=O)c1ccc(-c2cnc(NCc3c(F)ccc4c3CCO4)n3cc(C#N)nc23)cc1 [Example 180, 4-(2-cyano-5-(((5-fluoro-2,3-dihydrobenzofuran-4-yl)methyl)amino)imidazo[1,2-c]pyrimidin-8-yl)-N,N-dimethylbenzamide]
18 | > 7.00 | N#Cc1cn2c(NCc3c(F)ccc4c3CCO4)ncc(-c3ccc(C(=O)N4CCOCC4)cc3)c2n1 [Example 181, 5-(((5-fluoro-2,3-dihydrobenzofuran-4-yl)methyl)amino)-8-(4-(morpholine-4-carbonyl)phenyl)imidazo[1,2-c]pyrimidine-2-carbonitrile]
19 | 6.30 to 7.00 | N#Cc1cn2c(NCc3c(F)ccc4c3CCO4)ncc(-c3cnn(CCO)c3)c2n1 [Example 182, 5-(((5-fluoro-2,3-dihydrobenzofuran-4-yl)methyl)amino)-8-(1-(2-hydroxyethyl)-1H-pyrazol-4-yl)imidazo[1,2-c]pyrimidine-2-carbonitrile]
20 | > 7.00 | N#Cc1cn2c(NCc3c(F)ccc4c3CCO4)ncc(-c3ccc(C(=O)O)cc3)c2n1 [Example 183, 4-(2-cyano-5-(((5-fluoro-2,3-dihydrobenzofuran-4-yl)methyl)amino)imidazo[1,2-c]pyrimidin-8-yl)benzoic acid]
21 | 6.30 to 7.00 | Cc1cc(S(=O)(=O)C(F)(F)F)ccc1-c1cnc(NCc2c(F)ccc3c2CCO3)n2cc(C#N)nc12 [Example 184, 5-(((5-fluoro-2,3-dihydrobenzofuran-4-yl)methyl)amino)-8-(2-methyl-4-((trifluoromethyl)sulfonyl)phenyl)imidazo[1,2-c]pyrimidine-2-carbonitrile]
22 | > 7.00 | CNCc1ccc(-c2cnc(NCc3c(F)ccc4c3CCO4)n3cc(C#N)nc23)cc1 [Example 185, 5-(((5-fluoro-2,3-dihydrobenzofuran-4-yl)methyl)amino)-8-(4-((methylamino)methyl)phenyl)imidazo[1,2-c]pyrimidine-2-carbonitrile]
23 | > 7.00 | CNC(=O)c1ccc(-c2cnc(NCc3c(F)ccc4c3CCO4)n3cc(C#N)nc23)cc1 [Example 186, 4-(2-cyano-5-(((5-fluoro-2,3-dihydrobenzofuran-4-yl)methyl)amino)imidazo[1,2-c]pyrimidin-8-yl)-N-methylbenzamide]
24 | > 7.00 | N#Cc1cn2c(NCc3c(F)ccc4c3CCO4)ncc(-c3ccccc3C#N)c2n1 [Example 187, 8-(2-cyanophenyl)-5-(((5-fluoro-2,3-dihydrobenzofuran-4-yl)methyl)amino)imidazo[1,2-c]pyrimidine-2-carbonitrile]
25 | 6.30 to 7.00 | N#Cc1cc(-c2cnc(NCc3c(F)ccc4c3CCO4)n3cc(C#N)nc23)ccn1 [Example 188, 8-(2-cyanopyridin-4-yl)-5-(((5-fluoro-2,3-dihydrobenzofuran-4-yl)methyl)amino)imidazo[1,2-c]pyrimidine-2-carbonitrile]
26 | 6.30 to 7.00 | CN(C)CCOc1ccc(-c2cnc(NCc3c(F)ccc4c3CCO4)n3cc(C#N)nc23)cc1 [Example 189, 8-(4-(2-(dimethylamino)ethoxy)phenyl)-5-(((5-fluoro-2,3-dihydrobenzofuran-4-yl)methyl)amino)imidazo[1,2-c]pyrimidine-2-carbonitrile]
27 | > 7.00 | N#Cc1cn2c(NCc3c(F)ccc4c3CCO4)ncc(-c3ccc(-c4nnn[nH]4)cc3)c2n1 [Example 190, 8-(4-(1H-tetrazol-5-yl)phenyl)-5-(((5-fluoro-2,3-dihydrobenzofuran-4-yl)methyl)amino)imidazo[1,2-c]pyrimidine-2-carbonitrile]
28 | 6.30 to 7.00 | COCCOc1ncc(-c2cnc(NCc3c(F)ccc4c3CCO4)n3cc(C#N)nc23)cn1 [Example 191, 5-(((5-fluoro-2,3-dihydrobenzofuran-4-yl)methyl)amino)-8-(2-(2-methoxyethoxy)pyrimidin-5-yl)imidazo[1,2-c]pyrimidine-2-carbonitrile]
29 | < 6.30 | Cc1ccc(-c2cnc(NCc3c(F)ccc4c3CCO4)n3cc(C#N)nc23)c(C)c1 [Example 192, 8-(2,4-dimethylphenyl)-5-(((5-fluoro-2,3-dihydrobenzofuran-4-yl)methyl)amino)imidazo[1,2-c]pyrimidine-2-carbonitrile]

Row | SMILES | pIC50
30 | CCOP(=O)(OCC)c1ccc(-c2cnc(NCc3c(F)ccc4c3CCO4)n3cc(C#N)nc23)cc1 [Example 164, diethyl (4-(2-cyano-5-(((5-fluoro-2,3-dihydrobenzofuran-4-yl)methyl)amino)imidazo[1,2-c]pyrimidin-8-yl)phenyl)phosphonate] | > 7.00
